Results taken from PMC5789847, “Bismuth antimicrobial drugs serve as broad-spectrum metallo-β-lactamase inhibitors” (Nature Communications, 2018).

What was measured:
[1] = test system: NDM-C. freundii (NDM-1^+); experiment: Microdilution MIC/MBC and checkerboard assay; assay type: cell-based, Citrobacter freundii; details: NDM-C. freundii (NDM-CF)
Procedure: (§1) MIC values were determined by standard broth micro-dilution method (Clinical and Laboratory Standards Institute (CLSI) M100-S20, 2010)[64]. Briefly, bacterial cells were cultured in LB broth overnight at 37 °C at 250 rpm and the OD was measured at 600 nm (OD600). The bacterial density was adjusted to about 1 × 10^6 CFU mL^−1 and checked by CFU counting on agar plates afterwards. Tested antibiotics or Bi(III) compounds were added triplicately into individual wells of flat-bottomed 96-well plates and performed 2-fold serial dilution, followed by addition of prepared bacterial inocula. The plate was then incubated at 37 °C for overnight. […] The MIC was determined as the lowest concentration of a drug that could inhibit the growth of microorganism by both visual reading and OD reading at 600 nm using a microtiter plate reader.
(§2) Resulting growth (or lack of growth) was examined after overnight culturing and the lowest concentration that inhibits 99.9% of the original culture was taken as MBC.
(§3) Other procedures were kept strictly the same. […] Synergism was defined when FICI ≤ 0.5, indifference was defined when FICI > 0.5 and < 4, and antagonism was defined when FICI≥4[65]. […] All of the determinations were performed at least in triplicate on different days.

NDM-Rosetta = experiment: Microdilution MIC assay; assay type: cell-based, E. coli; details: Escherichia coli, CBS0, read-out: MIC of MER, CBS at 0
Source text: (§4) Other procedures were kept strictly the same.

NDM-BL21 = experiment: Microdilution MIC assay; assay type: cell-based, E. coli; details: Escherichia coli, CBS0, read-out: MIC of MER, CBS at 0
Source text: as §4

NDM-Rosetta OX = experiment: Microdilution MIC assay; assay type: cell-based, E. coli; details: Escherichia coli, CBS0, read-out: MIC of MER, CBS at 0, NDM-Rosetta OX (NDM-1 overexpressing); CBS 0 µg mL-1
Procedure: For the test of NDM-Rosetta OX, the growth condition briefly goes as follow. Overnight culture of NDM-Rosetta was 1000-fold diluted into fresh LB medium and regrew to OD ~0.6. The overexpression of NDM-1 was induced by addition of 1 mM isopropyl β-D-1-thiogalactopyranoside (IPTG) for 4 h at 37 °C. The following susceptibility test was performed as described in the Microdilution MIC and MBC assay section in the methodology by using the resulting bacterial pellets with the supplementation of 200 µM IPTG.
as §4

NDM-HK [2] = experiment: Murine peritonitis infection, mucin-assisted model; assay type: in vivo, BALB/c mice; details: 2% mucin, i.p. twice daily
Source text: All experiments were approved by, and performed in accordance with the guidelines approved by Committee on the Use of Live Animals in Teaching and Research (CULATR), the University of Hong Kong. A total of 6–8-week-old, female BALB/c mice (18–22 g) were purchased from Charles River Laboratories, Inc. and were used in all mouse studies. The animals were randomized to cages for each experiment.
In mucin-assisted model, for infection with NDM-1-positive bacteria, an overnight culture of NDM-HK was performed 1:250 dilution in 100 mL LB broth and re-grew to about OD600 0.3 in a 500-mL flask after 2.5 h shaking at 37 °C, 250 rpm. Bacterial pellets were collected and washed by PBS buffer three times for further use. Mice were infected intraperitoneally (i.p.) with a dose of 1 × 10^5 CFU of bacteria in PBS supplemented with 2% mucin. […] Twice-daily treatment via i.p. injection was continued throughout the whole experimental course. For the infection with NDM-1-negative bacteria, all the operations of infection were similar to those used for NDM-HK, except that NDM-HK PCV was used as infection-causing bacteria. […] Twice-daily treatment via i.p. injection was continued throughout the whole experimental course. Body weights and mice survival were monitored till endpoint of the experiment.

C208A-Rosetta = experiment: Microdilution MIC assay; assay type: cell-based, E. coli; details: Escherichia coli, CBS0, read-out: MIC of MER, CBS at 0
Procedure: For the test of C208A-Rosetta, the growth condition briefly goes as follow. Overnight culture of C208A-Rosetta was diluted into fresh LB medium (1000-fold) and regrew to OD ~0.6. The overexpression of NDM-1-C208A was induced by addition of 200 μM isopropyl β-D-1-thiogalactopyranoside (IPTG) for 18 h at 25 °C. The following susceptibility test was performed as described in the Microdilution MIC and MBC assay section in the methodology by using the resulting bacterial pellets with the supplementation of 200 μM IPTG.
as §4

[3] = test system: NDM-K. pneumonia (NDM-1^+); experiment: Microdilution MIC/MBC and checkerboard assay; assay type: cell-based, Klebsiella pneumonia; details: NDM-K. pneumonia (NDM-KP)
Procedure: as §1, §2, §3

NDM-HK [4] = experiment: In vitro cell infection assay (MDCK cells); assay type: cell-based, E. coli; details: MOI 200, MER at 2-fold MIC alone, overnight
Procedure: MDCK cell was cultured in minimum essential Media (MEM) supplemented with fetal bovine serum (FBS, 10%) and grown at 37 °C in 5% CO2-humidified atmosphere for 3 days. About 1.0 × 10^5 MDCK cells were seeded per well in 24-well plates and incubated as described above for 48 h to ensure confluency. Logarithmic cultures of NDM-HK were washed with PBS for three times and re-suspended in MEM/10% FBS resulting in the initial bacterial density of about 2.0 × 10^7 CFU mL^−1. Then, 500 μL of bacterial suspension were added to each well and substituted for the previous MDCK culture medium. The plates were centrifuged at 800 × g for 10 min and then incubated for another 6 h, executing the bacterial infection at multiplicity of infection (MOI) of 200. We then used two infection models for examination, viz, the cell-associated bacterial infection and cell-invaded bacterial infection. The cell-associated bacteria are herein defined as bacteria that attach to, penetrate, or transcytose in MDCK cells, while the cell-invaded bacteria are defined as bacteria that penetrate or transcytose MDCK cells. For the cell-invaded infection, the infected cells were incubated in culture medium supplemented with ciprofloxacin (100 µg mL^−1) for 1 h to remove extracellular bacteria. Then, the treated cells were washed vigorously with PBS for six times and replenished with culture medium. For the cell-associated infection, the infected cells were only washed vigorously with PBS for six times to remove unbound bacteria. The infected MDCK cells were then exposed to either MER or CBS, or their combination for overnight under identical cell culture condition. Cells in the absence of drugs served as a control. The bacterial loads were examined by lysing MDCK cells with 1% Triton X-100 in PBS and serially diluting the resulting lysates to enumerate bacterial colonies by agar plating. The assay was performed in triplicate, repeated three times, and results were expressed as average ± SD.

NDM-HK (NDM-1^+) = experiment: microbe, parasite or virus in culture; assay type: cell-based, E. coli; details: Escherichia coli
Procedure: as §1, §2, §3

IMP-BL21 (IMP-4^+) = experiment: microbe, parasite or virus in culture; assay type: cell-based, E. coli
Procedure: as §1, §2, §3

VIM-BL21 (VIM-2^+) = experiment: microbe, parasite or virus in culture; assay type: cell-based, E. coli
Procedure: as §1, §2, §3

NDM-HK [5] = experiment: Resistance study: MPC and mutation frequency; assay type: cell-based, E. coli; details: no CBS
NDM-HK PCV = experiment: Murine peritonitis infection with NDM-1-negative bacteria; assay type: in vivo, BALB/c mice; details: identical dose of MER, lethal dose of NDM-HK PCV
[6] = Escherichia coli, read-out: MBC of MER alone
[7] = Escherichia coli, read-out: MIC of MER alone

Compound: C[C@@H](O)[C@H]1C(=O)N2C(C(=O)O)=C(S[C@@H]3CN[C@H](C(=O)N(C)C)C3)[C@H](C)[C@H]12 [MER, meropenem]
- MBC ([1]; Citrobacter freundii, read-out: MBC of MER alone): 8 µg/mL
- MIC ([1]; Citrobacter freundii, read-out: MIC of MER alone): 8 µg/mL
- MBC of MER alone [1]: 8/8 µg mL^-1
- MIC of MER alone [1]: 8/8 µg mL^-1
- MIC (NDM-Rosetta): 32 µg/mL
- MIC (NDM-BL21): 16 µg/mL
- MIC (NDM-Rosetta OX): 256 µg/mL
- mice rescued at endpoint, MER monotherapy (NDM-HK [2]): two of the eight mice
- MIC (C208A-Rosetta): 0.12 µg/mL
- MBC ([3]; Klebsiella pneumoniae, read-out: MBC of MER alone): 16 µg/mL
- MIC ([3]; Klebsiella pneumoniae, read-out: MIC of MER alone): 16 µg/mL
- MBC of MER alone [3]: 16/16 µg mL^-1
- MIC of MER alone [3]: 16/16 µg mL^-1
- viable bacterial loads, cell-associated infection (NDM-HK [4]): ~10^6 CFU
- MIC (NDM-HK (NDM-1^+); CBS0, read-out: MIC of MER alone): 16 µg/mL
- MBC (NDM-HK (NDM-1^+); read-out: MBC of MER alone): 16 µg/mL
- MBC (IMP-BL21 (IMP-4^+); [6]): 32 µg/mL
- MIC (IMP-BL21 (IMP-4^+); [7]): 32 µg/mL
- MBC of MER alone (IMP-BL21 (IMP-4^+); IMP-BL21): 32/32 µg mL^-1
- MIC of MER alone (IMP-BL21 (IMP-4^+); IMP-BL21): 32/32 µg mL^-1
- MBC (VIM-BL21 (VIM-2^+); [6]): 32 µg/mL
- MIC (VIM-BL21 (VIM-2^+); [7]): 32 µg/mL
- MBC of MER alone (VIM-BL21 (VIM-2^+); VIM-BL21): 32/32 µg mL^-1
- MIC of MER alone (VIM-BL21 (VIM-2^+); VIM-BL21): 32/32 µg mL^-1
- MPC of MER alone (NDM-HK [5]): 32 folds of MIC
- outcome of MER monotherapy in mice infected with NDM-HK PCV (NDM-HK PCV): cured all the mice
